Measurements: patent publication US9974761B2, “Medications for deposition on biological surfaces” (The Procter & Gamble Company, priority 2014, dated 2018)

Columns and labels:
[1] = Sensation reported by panelists; type: in vivo; settings: perceived sensation, in words
human TRPM8 = experiment: TRPM8 Protocol-FLIPR Assay (intracellular Ca2+); type: cell-based; settings: for TRPM8 Time Course Activity 50 sec % of WS5 / TRPM8 Time Course Activity 3 min % of WS5 / TRPM8 Time Course Activity 5 min % of WS5 / TRPM8 Time Course Activity 10 min % of WS5: vs 30 uM WS-5; for TRPM8 Time Course Activity 3 min: fluorescence at 3 min; for TRPM8 Time Course Activity 5 min: fluorescence at 5 min; for TRPM8 Time Course Activity 10 min: fluorescence at 10 min
Method: To determine whether TRPM8 is activated, the intracellular calcium ion (Ca^2+) level was measured from transfected cells with the TRPM8 receptor sequence (SEQ ID NO: 3). HEK-293 (human embryonic kidney) cells stably transfected with human TRPM8 were grown in 15 ml growth medium (high glucose DMEM (Dulbecco's Modification of Eagle's Medium) supplemented with 10% FBS (fetal bovine serum), 100 ug/ml penicillin/streptomycin, 5 μg/ml blasticindin, and 100 μg/ml zeocin) in a 75 cm^2 flask for 3 days at 37° C. in a mammalian cell culture incubator set at 5% CO2 Cells were detached with addition of 2 ml of trypsin-EDTA buffer (GIBCO® 25200, Invitrogen, Grand Island, N.Y.) for about 2-3 min. Trypsin was inactivated by addition of 8 ml growth medium. Cells were transferred to a 50 ml tube and centrifuged at 850 rpm for 3 minutes to remove medium. After centrifugation, a pellet of cells was formed in the bottom of the tube separating them from the supernatant solution. The supernatant was discarded and the cell pellet was suspended in 1 ml of fresh growth medium to which 5 μl (12.5 μg) of Fluo-4 AM (Molecular Probes, Inc., Eugene, Oreg.) calcium indicator was added and incubated for 30 min with gentle shaking. Fluo-4 AM is a fluorescent dye used for quantifying cellular Ca^2+ concentrations in the 100 nM to 1 microM range. At the end of 30 minutes, 45 ml of assay buffer (1× HBSS (Hank's Balanced Salt Solution), 20 mM HEPES (4-(2-Hydroxyethyl)-1-piperazineethanesulfonic acid)) was added to wash cells and the resulting mixture was then centrifuged at 850 rpm for 3 minutes to remove excess buffer and Fluo-4 AM calcium indicator.
The pelleted cells were re-suspended in 10 ml assay buffer and 90 μl aliquots (˜50,000 cells) per well delivered to a 96-well assay plate containing 10 μl of test compounds (1 mM in assay buffer, […]) or buffer control and incubated at room temperature for 30 minutes. After 30 minutes, a plate was placed into a fluorometric imaging plate reader (FLIPR384 from Molecular Devices, Sunnyvale, Calif.) and basal fluorescence recorded (excitation wave length 488 nm and emission wave length 510 nm). Then 20 μl of […] of TRPM8 agonist WS5 coolant in the assay buffer was added and fluorescence recorded. For determining the direct effect of test compounds on TRPM8, fluorescence was measured immediately after addition of each compound (TABLES 2 and 3). Additional discussion of the FLIPR method can be found in Smart et al., Characterization using FLIPR of human vanilloid VR1 receptor pharmacology, European Journal of Pharmacology 417, 51-58 (2001) and Liu et al., Development and validation of a platelet calcium flux assay using a fluorescent imaging plate reader, Analytical Biochemistry 357, 216-224 (2006).
TRPM8 activation was determined by measuring intracellular calcium ion (Ca^2+) level from transfected cells with the TRPM8 receptor gene, as described in EXAMPLE 1, the results of which are shown in TABLES 4 and 5.

In the case of `CC(C)[C@@H]1CC[C@@H](C)C[C@H]1C(=O)NCC(NC(=O)[C@@H](C)N)c1ccccc1` (single isomer, unassigned) [Compound 28 fraction 1], the “sensation (cooling, warming, burning)” value [1] is reported as “intense cooling”, the “TRPM8 Time Course Activity 50 sec % of WS5” value (human TRPM8; dose 6.1 nM) is reported as 8.8% and the “TRPM8 Time Course Activity 3 min % of WS5” value (human TRPM8; dose 6.1 nM) is reported as 36.5%. The “TRPM8 Time Course Activity 5 min % of WS5” value (human TRPM8; dose 6.1 nM) was 46.7%, the “TRPM8 Time Course Activity 10 min % of WS5” value (human TRPM8; dose 6.1 nM) was 56.1% and the “TRPM8 Time Course Activity 3 min” value (human TRPM8; dose 6.1 nM) was 3452.0. For the same compound, the “TRPM8 Time Course Activity 5 min” value (human TRPM8; dose 6.1 nM) was 4426.0, the “TRPM8 Time Course Activity 10 min” value (human TRPM8; dose 6.1 nM) was 5375.0 and the “TRPM8 Time Course Activity 50 sec % of WS5” value (human TRPM8; dose 12.2 nM) was 30.0%. The “TRPM8 Time Course Activity 3 min % of WS5” value (human TRPM8; dose 12.2 nM) was 93.0%, the “TRPM8 Time Course Activity 5 min % of WS5” value (human TRPM8; dose 12.2 nM) was 103.8% and the “TRPM8 Time Course Activity 10 min % of WS5” value (human TRPM8; dose 12.2 nM) was 115.5%. The “TRPM8 Time Course Activity 3 min” value (human TRPM8; dose 12.2 nM) was 8783.0, the “TRPM8 Time Course Activity 5 min” value (human TRPM8; dose 12.2 nM) was 9830.0 and the “TRPM8 Time Course Activity 10 min” value (human TRPM8; dose 12.2 nM) was 11065.0. The “TRPM8 Time Course Activity 50 sec % of WS5” value (human TRPM8; dose 24.4 nM) was 19.2%, the “TRPM8 Time Course Activity 3 min % of WS5” value (human TRPM8; dose 24.4 nM) was 67.8% and the “TRPM8 Time Course Activity 5 min % of WS5” value (human TRPM8; dose 24.4 nM) was 80.2%. The “TRPM8 Time Course Activity 10 min % of WS5” value (human TRPM8; dose 24.4 nM) was 92.7%, the “TRPM8 Time Course Activity 3 min” value (human TRPM8; dose 24.4 nM) was 6405.0 and the “TRPM8 Time Course Activity 5 min” value (human TRPM8; dose 24.4 nM) was 7593.0. For the same compound, the “TRPM8 Time Course Activity 10 min” value (human TRPM8; dose 24.4 nM) was 8879.0, the “TRPM8 Time Course Activity 50 sec % of WS5” value (human TRPM8; dose 48.8 nM) was 29.0% and the “TRPM8 Time Course Activity 3 min % of WS5” value (human TRPM8; dose 48.8 nM) was 84.8%. For the same compound, the “TRPM8 Time Course Activity 5 min % of WS5” value (human TRPM8; dose 48.8 nM) was 94.9%, the “TRPM8 Time Course Activity 10 min % of WS5” value (human TRPM8; dose 48.8 nM) was 106.8% and the “TRPM8 Time Course Activity 3 min” value (human TRPM8; dose 48.8 nM) was 8017.0. The “TRPM8 Time Course Activity 5 min” value (human TRPM8; dose 48.8 nM) was 8983.0, the “TRPM8 Time Course Activity 10 min” value (human TRPM8; dose 48.8 nM) was 10224.0 and the “TRPM8 Time Course Activity 50 sec % of WS5” value (human TRPM8; dose 97.6 nM) was 39.4%. For the same compound, the “TRPM8 Time Course Activity 3 min % of WS5” value (human TRPM8; dose 97.6 nM) was 103.1%, the “TRPM8 Time Course Activity 5 min % of WS5” value (human TRPM8; dose 97.6 nM) was 113.1% and the “TRPM8 Time Course Activity 10 min % of WS5” value (human TRPM8; dose 97.6 nM) was 125.4%. For the same compound, the “TRPM8 Time Course Activity 3 min” value (human TRPM8; dose 97.6 nM) was 9744.0, the “TRPM8 Time Course Activity 5 min” value (human TRPM8; dose 97.6 nM) was 10711.0 and the “TRPM8 Time Course Activity 10 min” value (human TRPM8; dose 97.6 nM) was 12011.0. For the same compound, the “TRPM8 Time Course Activity 50 sec % of WS5” value (human TRPM8; dose 195 nM) was 53.9%, the “TRPM8 Time Course Activity 3 min % of WS5” value (human TRPM8; dose 195 nM) was 116.8% and the “TRPM8 Time Course Activity 5 min % of WS5” value (human TRPM8; dose 195 nM) was 124.9%. The “TRPM8 Time Course Activity 10 min % of WS5” value (human TRPM8; dose 195 nM) was 136.2%, the “TRPM8 Time Course Activity 3 min” value (human TRPM8; dose 195 nM) was 11037.0 and the “TRPM8 Time Course Activity 5 min” value (human TRPM8; dose 195 nM) was 11824.0. The “TRPM8 Time Course Activity 10 min” value (human TRPM8; dose 195 nM) was 13046.0, the “TRPM8 Time Course Activity 3 min % of WS5” value (human TRPM8; dose 390 nM) was 120.4% and the “TRPM8 Time Course Activity 5 min % of WS5” value (human TRPM8; dose 390 nM) was 126.4%. For the same compound, the “TRPM8 Time Course Activity 10 min % of WS5” value (human TRPM8; dose 390 nM) was 137.0%, the “TRPM8 Time Course Activity 3 min” value (human TRPM8; dose 390 nM) was 11373.0 and the “TRPM8 Time Course Activity 5 min” value (human TRPM8; dose 390 nM) was 11968.0. The “TRPM8 Time Course Activity 10 min” value (human TRPM8; dose 390 nM) was 13121.0, the “TRPM8 Time Course Activity 3 min % of WS5” value (human TRPM8; dose 781 nM) was 128.9% and the “TRPM8 Time Course Activity 5 min % of WS5” value (human TRPM8; dose 781 nM) was 133.3%. For the same compound, the “TRPM8 Time Course Activity 10 min % of WS5” value (human TRPM8; dose 781 nM) was 142.7%, the “TRPM8 Time Course Activity 3 min” value (human TRPM8; dose 781 nM) was 12182.0 and the “TRPM8 Time Course Activity 5 min” value (human TRPM8; dose 781 nM) was 12618.0. For the same compound, the “TRPM8 Time Course Activity 10 min” value (human TRPM8; dose 781 nM) was 13661.0, the “TRPM8 Time Course Activity 3 min % of WS5” value (human TRPM8; dose 1.563 uM) was 128.4% and the “TRPM8 Time Course Activity 5 min % of WS5” value (human TRPM8; dose 1.563 uM) was 132.0%. The “TRPM8 Time Course Activity 10 min % of WS5” value (human TRPM8; dose 1.563 uM) was 140.4%, the “TRPM8 Time Course Activity 3 min” value (human TRPM8; dose 1.563 uM) was 12135.0 and the “TRPM8 Time Course Activity 5 min” value (human TRPM8; dose 1.563 uM) was 12499.0. The “TRPM8 Time Course Activity 10 min” value (human TRPM8; dose 1.563 uM) was 13440.0, the “TRPM8 Time Course Activity 3 min % of WS5” value (human TRPM8; dose 3.125 uM) was 133.4% and the “TRPM8 Time Course Activity 5 min % of WS5” value (human TRPM8; dose 3.125 uM) was 136.7%. For the same compound, the “TRPM8 Time Course Activity 10 min % of WS5” value (human TRPM8; dose 3.125 uM) was 144.6%, the “TRPM8 Time Course Activity 3 min” value (human TRPM8; dose 3.125 uM) was 12602.0 and the “TRPM8 Time Course Activity 5 min” value (human TRPM8; dose 3.125 uM) was 12939.0. The “TRPM8 Time Course Activity 10 min” value (human TRPM8; dose 3.125 uM) was 13850.0, the “TRPM8 Time Course Activity 3 min % of WS5” value (human TRPM8; dose 6.25 uM) was 135.2% and the “TRPM8 Time Course Activity 5 min % of WS5” value (human TRPM8; dose 6.25 uM) was 138.3%. The “TRPM8 Time Course Activity 10 min % of WS5” value (human TRPM8; dose 6.25 uM) was 147.3%, the “TRPM8 Time Course Activity 3 min” value (human TRPM8; dose 6.25 uM) was 12775.0 and the “TRPM8 Time Course Activity 5 min” value (human TRPM8; dose 6.25 uM) was 13098.0. The “TRPM8 Time Course Activity 10 min” value (human TRPM8; dose 6.25 uM) was 14102.0, the “TRPM8 Time Course Activity 3 min % of WS5” value (human TRPM8; dose 12.5 uM) was 133.3% and the “TRPM8 Time Course Activity 5 min % of WS5” value (human TRPM8; dose 12.5 uM) was 137.3%. The “TRPM8 Time Course Activity 10 min % of WS5” value (human TRPM8; dose 12.5 uM) was 145.6%, the “TRPM8 Time Course Activity 3 min” value (human TRPM8; dose 12.5 uM) was 12591.0 and the “TRPM8 Time Course Activity 5 min” value (human TRPM8; dose 12.5 uM) was 12997.0. For the same compound, the “TRPM8 Time Course Activity 10 min” value (human TRPM8; dose 12.5 uM) was 13947.0, the “TRPM8 Time Course Activity 3 min % of WS5” value (human TRPM8; dose 25 uM) was 137.8% and the “TRPM8 Time Course Activity 5 min % of WS5” value (human TRPM8; dose 25 uM) was 141.0%. For the same compound, the “TRPM8 Time Course Activity 10 min % of WS5” value (human TRPM8; dose 25 uM) was 149.8%, the “TRPM8 Time Course Activity 3 min” value (human TRPM8; dose 25 uM) was 13020.0 and the “TRPM8 Time Course Activity 5 min” value (human TRPM8; dose 25 uM) was 13354.0. For the same compound, the “TRPM8 Time Course Activity 10 min” value (human TRPM8; dose 25 uM) was 14341.0, the “TRPM8 Time Course Activity 3 min % of WS5” value (human TRPM8; dose 50 uM) was 130.1% and the “TRPM8 Time Course Activity 5 min % of WS5” value (human TRPM8; dose 50 uM) was 133.7%. The “TRPM8 Time Course Activity 10 min % of WS5” value (human TRPM8; dose 50 uM) was 137.5%, the “TRPM8 Time Course Activity 3 min” value (human TRPM8; dose 50 uM) was 12295.0 and the “TRPM8 Time Course Activity 5 min” value (human TRPM8; dose 50 uM) was 12654.0. The “TRPM8 Time Course Activity 10 min” value (human TRPM8; dose 50 uM) was 13169.0, the “TRPM8 Time Course Activity 3 min % of WS5” value (human TRPM8; dose 100 uM) was 132.5% and the “TRPM8 Time Course Activity 5 min % of WS5” value (human TRPM8; dose 100 uM) was 135.7%. For the same compound, the “TRPM8 Time Course Activity 10 min % of WS5” value (human TRPM8; dose 100 uM) was 137.7%, the “TRPM8 Time Course Activity 3 min” value (human TRPM8; dose 100 uM) was 12520.0 and the “TRPM8 Time Course Activity 5 min” value (human TRPM8; dose 100 uM) was 12844.0. For the same compound, the “TRPM8 Time Course Activity 10 min” value (human TRPM8; dose 100 uM) was 13187.0.
